Results taken from PubChem BioAssay AID1963449 (Molecular Pharmacology Branch, DTP, NCI, 2024).

Tested on: 596521-263-R-J1-PDC complex spheroid growth
Experiment: Anticancer human tumor 596521-263-R-J1-PDC patient-derived soft tissue sarcoma cell line growth inhibition [Asc]
Details: for IC50: curve of first compound; for viability, T/C: stronger effect = lower value
Summary of the method: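 Complex spheroids combining tumor cells with HUVEC endothelial cells and human MSCs, at 37 degrees C, 5% CO2; agents tested alone or combined, half-log dilutions from at or near clinical Cmax, or 10 microM if Cmax unknown.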

[1] = second compound 0.00949 µM, first compound 0.0316 µM
[2] = second compound 0.00949 µM, first compound 0.1 µM
[3] = second compound 0.00949 µM, first compound 0.316 µM
[4] = second compound 0.00949 µM, first compound 1 µM
[5] = second compound 0.03 µM, first compound 0.0316 µM
[6] = second compound 0.03 µM, first compound 0.1 µM
[7] = second compound 0.03 µM, first compound 0.316 µM
[8] = second compound 0.03 µM, first compound 1 µM
[9] = second compound 0.0949 µM, first compound 0.0316 µM
[10] = second compound 0.0949 µM, first compound 0.1 µM
[11] = second compound 0.0949 µM, first compound 0.316 µM
[12] = second compound 0.0949 µM, first compound 1 µM
[13] = second compound 0.3 µM, first compound 0.0316 µM
[14] = second compound 0.3 µM, first compound 0.1 µM
[15] = second compound 0.3 µM, first compound 0.316 µM
[16] = second compound 0.3 µM, first compound 1 µM
[17] = second compound 0.949 µM, first compound 0.0316 µM
[18] = second compound 0.949 µM, first compound 0.1 µM
[19] = second compound 0.949 µM, first compound 0.316 µM
[20] = second compound 0.949 µM, first compound 1 µM
[21] = second compound 3 µM, first compound 0.0316 µM
[22] = second compound 3 µM, first compound 0.1 µM
[23] = second compound 3 µM, first compound 0.316 µM
[24] = second compound 3 µM, first compound 1 µM
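Also: spheroids exposed to compounds for 7 days.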

`C#Cc1c(F)ccc2cc(O)cc(-c3ncc4c(N5CC6CCC(C5)N6)nc(OCC56CCCN5CC(F)C6)nc4c3F)c12` (stereo unspecified) + CCN1C(C(=O)NC23CCC(C(=O)O)(CC2)CC3)C(c2cccc(Cl)c2F)C2(C(=O)Nc3cc(Cl)ccc32)C12CCCCC2 was tested, and the IC50 (second compound 0.00949 µM) was > 10 µM, the IC50 (second compound 0.03 µM) was > 10 µM and the IC50 (second compound 0.0949 µM) was > 10 µM. For the same molecule, the IC50 (second compound 0.3 µM) was > 10 µM, the IC50 (second compound 0.949 µM) was > 10 µM and the IC50 (second compound 3 µM) was > 10 µM. For the same molecule, the viability, T/C [1] was 90.9%, the viability, T/C [2] was 88.8% and the viability, T/C [3] was 93.7%. The viability, T/C [4] was 93.1%, the viability, T/C (second compound 0.00949 µM, first compound 3.16 µM) was 100% and the viability, T/C (second compound 0.00949 µM, first compound 10 µM) was 87.7%. It also gave a viability, T/C [5] of 111%, a viability, T/C [6] of 101% and a viability, T/C [7] of 85.8%. For the same molecule, the viability, T/C [8] was 96.2%, the viability, T/C (second compound 0.03 µM, first compound 3.16 µM) was 107% and the viability, T/C (second compound 0.03 µM, first compound 10 µM) was 80%. The viability, T/C [9] was 99.3%, the viability, T/C [10] was 84.3% and the viability, T/C [11] was 96.9%. The viability, T/C [12] was 92%, the viability, T/C (second compound 0.0949 µM, first compound 3.16 µM) was 102% and the viability, T/C (second compound 0.0949 µM, first compound 10 µM) was 84.8%. The viability, T/C [13] was 103%, the viability, T/C [14] was 98.9% and the viability, T/C [15] was 97.8%. It also gave a viability, T/C [16] of 100%, a viability, T/C (second compound 0.3 µM, first compound 3.16 µM) of 119% and a viability, T/C (second compound 0.3 µM, first compound 10 µM) of 85.7%. It also gave a viability, T/C [17] of 92.4%, a viability, T/C [18] of 108% and a viability, T/C [19] of 103%. The viability, T/C [20] was 98.7%, the viability, T/C (second compound 0.949 µM, first compound 3.16 µM) was 87% and the viability, T/C (second compound 0.949 µM, first compound 10 µM) was 80.3%. For the same molecule, the viability, T/C [21] was 81.3%, the viability, T/C [22] was 85.7% and the viability, T/C [23] was 85.1%. It also gave a viability, T/C [24] of 88.8%, a viability, T/C (second compound 3 µM, first compound 3.16 µM) of 88.2% and a viability, T/C (second compound 3 µM, first compound 10 µM) of 78.9%.
For `CNC(C)C(=O)NC1CN(S(=O)(=O)c2cccc(S(=O)(=O)N3CCC4CCC(C(=O)NC(c5ccccc5)c5ccccc5)N4C(=O)C(NC(=O)C(C)NC)C3)c2)CCC2CCC(C(=O)NC(c3ccccc3)c3ccccc3)N2C1=O` (stereo unspecified) + CCN1C(C(=O)NC23CCC(C(=O)O)(CC2)CC3)C(c2cccc(Cl)c2F)C2(C(=O)Nc3cc(Cl)ccc32)C12CCCCC2, the IC50 (second compound 0.00949 µM) was > 1 µM, the IC50 (second compound 0.03 µM) was > 1 µM and the IC50 (second compound 0.0949 µM) was > 1 µM. The IC50 (second compound 0.3 µM) was > 1 µM, the IC50 (second compound 0.949 µM) was > 1 µM and the IC50 (second compound 3 µM) was > 1 µM. It also gave a viability, T/C (second compound 0.00949 µM, first compound 0.00316 µM) of 92.4%, a viability, T/C (second compound 0.00949 µM, first compound 0.01 µM) of 87.3% and a viability, T/C [1] of 111%. The viability, T/C [2] was 96%, the viability, T/C [3] was 87% and the viability, T/C [4] was 86.3%. The viability, T/C (second compound 0.03 µM, first compound 0.00316 µM) was 96.4%, the viability, T/C (second compound 0.03 µM, first compound 0.01 µM) was 86.5% and the viability, T/C [5] was 88.5%. The viability, T/C [6] was 87.7%, the viability, T/C [7] was 87.5% and the viability, T/C [8] was 73.1%. For the same molecule, the viability, T/C (second compound 0.0949 µM, first compound 0.00316 µM) was 102%, the viability, T/C (second compound 0.0949 µM, first compound 0.01 µM) was 105% and the viability, T/C [9] was 85.2%. It also gave a viability, T/C [10] of 94.7%, a viability, T/C [11] of 91.4% and a viability, T/C [12] of 89.8%. The viability, T/C (second compound 0.3 µM, first compound 0.00316 µM) was 104%, the viability, T/C (second compound 0.3 µM, first compound 0.01 µM) was 104% and the viability, T/C [13] was 98.4%. For the same molecule, the viability, T/C [14] was 91.5%, the viability, T/C [15] was 94.2% and the viability, T/C [16] was 70.3%. For the same molecule, the viability, T/C (second compound 0.949 µM, first compound 0.00316 µM) was 99%, the viability, T/C (second compound 0.949 µM, first compound 0.01 µM) was 90.2% and the viability, T/C [17] was 98.8%. For the same molecule, the viability, T/C [18] was 80.3%, the viability, T/C [19] was 78.8% and the viability, T/C [20] was 84.4%. It also gave a viability, T/C (second compound 3 µM, first compound 0.00316 µM) of 78.2%, a viability, T/C (second compound 3 µM, first compound 0.01 µM) of 87.8% and a viability, T/C [21] of 82.8%. The viability, T/C [22] was 73.5%, the viability, T/C [23] was 69.3% and the viability, T/C [24] was 65.4%.
In the case of `Cc1nc(N2CCC3(CC2)COC(C)C3N)c(CO)nc1Sc1ccnc(N)c1Cl` (stereo unspecified) + CCN1C(C(=O)NC23CCC(C(=O)O)(CC2)CC3)C(c2cccc(Cl)c2F)C2(C(=O)Nc3cc(Cl)ccc32)C12CCCCC2, the IC50 (second compound 0.00949 µM) is reported as > 3 µM, the IC50 (second compound 0.03 µM) is reported as > 3 µM and the IC50 (second compound 0.0949 µM) is reported as > 3 µM. For the same molecule, the IC50 (second compound 0.3 µM) was > 3 µM, the IC50 (second compound 0.949 µM) was > 3 µM and the IC50 (second compound 3 µM) was > 3 µM. It also gave a viability, T/C (second compound 0.00949 µM, first compound 0.00949 µM) of 97.8%, a viability, T/C (second compound 0.00949 µM, first compound 0.03 µM) of 92.9% and a viability, T/C (second compound 0.00949 µM, first compound 0.0949 µM) of 87.7%. It also gave a viability, T/C (second compound 0.00949 µM, first compound 0.3 µM) of 84.5%, a viability, T/C (second compound 0.00949 µM, first compound 0.949 µM) of 78.6% and a viability, T/C (second compound 0.00949 µM, first compound 3 µM) of 67.8%. It also gave a viability, T/C (second compound 0.03 µM, first compound 0.00949 µM) of 92.5%, a viability, T/C (second compound 0.03 µM, first compound 0.03 µM) of 99.1% and a viability, T/C (second compound 0.03 µM, first compound 0.0949 µM) of 104%. It also gave a viability, T/C (second compound 0.03 µM, first compound 0.3 µM) of 88.3%, a viability, T/C (second compound 0.03 µM, first compound 0.949 µM) of 81.2% and a viability, T/C (second compound 0.03 µM, first compound 3 µM) of 66.2%. For the same molecule, the viability, T/C (second compound 0.0949 µM, first compound 0.00949 µM) was 101%, the viability, T/C (second compound 0.0949 µM, first compound 0.03 µM) was 92.9% and the viability, T/C (second compound 0.0949 µM, first compound 0.0949 µM) was 87.4%. It also gave a viability, T/C (second compound 0.0949 µM, first compound 0.3 µM) of 91.3%, a viability, T/C (second compound 0.0949 µM, first compound 0.949 µM) of 80% and a viability, T/C (second compound 0.0949 µM, first compound 3 µM) of 69.3%. The viability, T/C (second compound 0.3 µM, first compound 0.00949 µM) was 101%, the viability, T/C (second compound 0.3 µM, first compound 0.03 µM) was 95% and the viability, T/C (second compound 0.3 µM, first compound 0.0949 µM) was 96.5%. The viability, T/C (second compound 0.3 µM, first compound 0.3 µM) was 91.5%, the viability, T/C (second compound 0.3 µM, first compound 0.949 µM) was 83.8% and the viability, T/C (second compound 0.3 µM, first compound 3 µM) was 69.3%. It also gave a viability, T/C (second compound 0.949 µM, first compound 0.00949 µM) of 90.8%, a viability, T/C (second compound 0.949 µM, first compound 0.03 µM) of 101% and a viability, T/C (second compound 0.949 µM, first compound 0.0949 µM) of 100%. For the same molecule, the viability, T/C (second compound 0.949 µM, first compound 0.3 µM) was 91.5%, the viability, T/C (second compound 0.949 µM, first compound 0.949 µM) was 90.1% and the viability, T/C (second compound 0.949 µM, first compound 3 µM) was 73.8%. It also gave a viability, T/C (second compound 3 µM, first compound 0.00949 µM) of 82.6%, a viability, T/C (second compound 3 µM, first compound 0.03 µM) of 81.6% and a viability, T/C (second compound 3 µM, first compound 0.0949 µM) of 82.1%. The viability, T/C (second compound 3 µM, first compound 0.3 µM) was 86.1%, the viability, T/C (second compound 3 µM, first compound 0.949 µM) was 65.8% and the viability, T/C (second compound 3 µM, first compound 3 µM) was 58.2%.
